In patent US8394969B2, “Cyclic benzimidazole derivatives useful as anti-diabetic agents” (Merck Sharp & Dohme Corp., priority 2008, dated 2013):
Counter-ions that a name gives are not always drawn.

target: recombinant human AMPK complex 1 (containing α1β1γ1) (Homo sapiens, UniProt Q13131+Q9Y478); experiment: […] (in vitro AMPK activation assay); type: biochemical; conditions: read-out: % Maximum AMP Activation of human AMPK Complex 1, recombinant human AMPK complex 1 (α1β1γ1); basal activity subtracted
Sequence (Q13131 whole entry): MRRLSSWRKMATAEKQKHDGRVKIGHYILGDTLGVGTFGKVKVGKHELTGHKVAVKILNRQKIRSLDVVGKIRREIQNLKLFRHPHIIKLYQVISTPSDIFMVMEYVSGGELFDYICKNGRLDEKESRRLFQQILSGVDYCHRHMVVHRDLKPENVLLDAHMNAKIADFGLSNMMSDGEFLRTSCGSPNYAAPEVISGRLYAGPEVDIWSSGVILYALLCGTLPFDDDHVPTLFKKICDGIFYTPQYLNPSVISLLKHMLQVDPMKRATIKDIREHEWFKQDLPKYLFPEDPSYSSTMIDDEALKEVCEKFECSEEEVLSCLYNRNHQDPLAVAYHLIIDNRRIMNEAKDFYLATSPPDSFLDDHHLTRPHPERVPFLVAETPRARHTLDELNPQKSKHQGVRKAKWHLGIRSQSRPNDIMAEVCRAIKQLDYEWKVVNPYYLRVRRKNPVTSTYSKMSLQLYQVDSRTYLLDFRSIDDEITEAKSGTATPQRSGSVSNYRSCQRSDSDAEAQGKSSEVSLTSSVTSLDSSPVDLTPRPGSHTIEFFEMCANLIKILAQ
Sequence (Q9Y478 whole entry): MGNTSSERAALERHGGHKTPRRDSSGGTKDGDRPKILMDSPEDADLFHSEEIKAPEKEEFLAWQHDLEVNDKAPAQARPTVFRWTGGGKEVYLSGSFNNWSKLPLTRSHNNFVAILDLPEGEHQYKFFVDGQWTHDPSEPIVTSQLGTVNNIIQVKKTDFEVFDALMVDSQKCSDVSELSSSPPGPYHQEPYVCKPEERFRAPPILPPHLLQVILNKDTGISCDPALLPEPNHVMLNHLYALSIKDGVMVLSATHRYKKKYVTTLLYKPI
Sequence (P54619 whole entry partner): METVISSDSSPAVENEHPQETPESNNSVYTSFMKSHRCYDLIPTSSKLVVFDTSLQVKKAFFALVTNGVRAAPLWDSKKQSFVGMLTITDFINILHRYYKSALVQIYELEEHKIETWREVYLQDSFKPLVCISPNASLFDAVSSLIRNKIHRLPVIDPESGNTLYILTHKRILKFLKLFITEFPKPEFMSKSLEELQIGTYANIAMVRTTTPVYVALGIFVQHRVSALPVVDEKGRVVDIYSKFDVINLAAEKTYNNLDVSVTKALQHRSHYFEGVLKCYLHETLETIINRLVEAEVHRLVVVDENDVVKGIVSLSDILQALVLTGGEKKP

Row | SMILES | Emax [%]
1 | Cc1cc(-c2cc3nc(Oc4ccc(C)c(C(=O)O)c4)[nH]c3cc2Cl)ccc1F [Example 328, Ammonium 5-{[6-chloro-5-(4-fluoro-3-methylphenyl-1H-benzimidazol-2-yl]oxy}-2-methylbenzoate] | > 80

same assay, conditions: recombinant human AMPK complex 1 (α1β1γ1); basal activity subtracted; read-out: % Maximum AMP Activation of human AMPK Complex 1

Row | SMILES | Emax [%]
2 | Cc1ccc(Oc2nc3cc(C#Cc4ccc(OC(F)(F)F)cc4)c(Cl)cc3[nH]2)cc1C(=O)O [Example 95, 5-[6-Chloro-5-(4-trifluoromethoxy-phenylethynyl)-1H-benzoimidazol-2-yloxy]-2-methyl-benzoic acid] | > 80
3 | O=C(O)c1ccc(Oc2nc3cc(-c4ccc(-c5ccccc5)cc4)c(Cl)cc3[nH]2)cc1C(=O)O [Example 36, 4-(5-Biphenyl-4-yl-6-chloro-1H-benzoimidazol-2-yloxy)-phthalic acid] | > 80
4 | Cc1ccc(Oc2nc3cc(-c4cnc5c(ccn5C)c4)c(Cl)cc3[nH]2)cc1C(=O)O [Example 144, 2-(3-carboxy-4-methylphenoxy)-6-chloro-5-(1-methyl-1H-pyrrolo[2,3-b]pyridin-5-yl)-1H-3,1-benzimidazol-3-ium chloride] | > 80
5 | O=C(O)c1cccc(Nc2nc3cc(C#Cc4ccccc4)c(Cl)cc3[nH]2)c1 [Example 139, 3-(6-Chloro-5-phenylethynyl-1H-benzoimidazol-2-ylamino)-benzoic acid] | > 80
6 | Cc1[nH]c2ccc(Oc3nc4cc(-c5ccc(-c6ccccc6)cc5)c(Cl)cc4[nH]3)cc2c1C(=O)O [Example 5, 5-(5-Biphenyl-4-yl-6-chloro-1H-benzoimidazol-2-yloxy)-2-methyl-1H-indole-3-carboxylic acid] | > 80
7 | COC(=O)c1cc(Oc2nc3cc(C#Cc4cncn4C)c(Cl)cc3[nH]2)ccc1C [Example 136, 5-[6-Chloro-5-(3-methyl-3H-imidazol-4-ylethynyl)-1H-benzoimidazol-2-yloxy]-2-methyl-benzoic acid methyl ester] | > 80
8 | Cc1ccc(Oc2nc3cc(C#Cc4ccc(-c5nccs5)cc4)c(Cl)cc3[nH]2)cc1C(=O)O [Example 84, 5-[6-Chloro-5-(4-thiazol-2-yl-phenylethynyl)-1H-benzoimidazol-2-yloxy]-2-methyl-benzoic acid] | > 80
9 | Cc1ccc(Oc2nc3cc(C#Cc4ccc(-n5ccnc5)cc4)c(Cl)cc3[nH]2)cc1C(=O)O [Example 86, 5-[6-Chloro-5-(4-imidazol-1-yl-phenylethynyl)-1H-benzoimidazol-2-yloxy]-2-methyl-benzoic acid] | > 80
10 | Cc1ccc(Oc2nc3cc(C#Cc4ccc(F)cc4)c(Cl)cc3[nH]2)cc1C(=O)O [Example 113, 5-[6-Chloro-5-(4-fluoro-phenylethynyl)-1H-benzoimidazol-2-yloxy]-2-methyl-benzoic acid] | > 80
11 | Cc1ccc(Oc2nc3cc(-c4ccc(-c5cn[nH]c5)cc4)c(Cl)cc3[nH]2)cc1C(=O)O [Example 202, 5-({6-chloro-5-[4-(1H-pyrazol-4-yl)phenyl]-1H-benzimidazol-2-yl}oxy)-2-methylbenzoic acid] | > 80
12 | Cc1ccc(Oc2nc3cc(C#CC4(O)CCCC4)c(Cl)cc3[nH]2)cc1C(=O)O [Example 135, 5[6-Chloro-5-(1-hydroxy-cyclopentylethynyl)-1H-benzoimidazol-2-yloxy]-2-methyl-benzoic acid] | > 80
13 | COC(=O)c1cc(Oc2nc3cc(C#Cc4cccc(O)c4)c(Cl)cc3[nH]2)ccc1C [Example 125, 5-[6-Chloro-5-(3-hydroxy-phenylethynyl)-1H-benzoimidazol-2-yloxy]-2-methyl-benzoic acid methyl ester] | > 80
14 | Cc1ccc(Oc2nc3cc(-c4ccc5c(c4)CN(C(C)C)C5)c(Cl)cc3[nH]2)cc1C(=O)O [Example 299, 5-[2-(3-carboxy-4-methylphenoxy)-6-chloro-1H-benzimidazol-5-yl]-2-isopropyl-2,3-dihydro-1H-isoindolium trifluoroacetate] | > 80
15 | O=C(O)c1cccc(Sc2nc3cc(-c4ccc(-c5ccccc5)cc4)c(Cl)cc3[nH]2)c1 [Example 64, 3-[(5-biphenyl-4-yl-6-chloro-1H-benizmidazol-2-yl)thio]benzoic acid] | > 80
16 | Cc1ccc(Oc2nc3cc(-c4ccc(C(C)N(C)C)cc4)c(Cl)cc3[nH]2)cc1C(=O)O (centres unmarked) [Example 292, 1-{4-[2-(3-carboxy-4-methylphenoxy)-6-chloro-1H-benzimidazol-5-yl]phenyl}-N,N-dimethylethanaminium trifluoroacetate] | > 80
17 | Cc1ccc(Oc2nc3cc(-c4ccc5c(C)cn(C(=O)OC(C)(C)C)c5c4)c(Cl)cc3[nH]2)cc1C(=O)O [Example 290, 6-[2-(3-Carboxy-4-methyl-phenoxy)-6-chloro-1H-benzoimidazol-5-yl]-3-methyl-indole-1-carboxylic acid tert butyl ester] | > 80
18 | Cc1ccc(Oc2nc3cc(-c4cnn(C)c4)c(Cl)cc3[nH]2)cc1C(=O)O [Example 57, 5-[6-Chloro-5-(1-methyl-1H-pyrazol-4-yl)-1H-benzoimidazol-2-yloxy]-2-methyl-benzoic acid] | > 80
19 | COC(=O)c1cc(Oc2nc3cc(-c4ccc(-c5cccnc5)cc4)c(Cl)cc3[nH]2)ccc1C [Example 171, 5-[6-Chloro-5-(4-pyridin-3-yl-phenyl)-1H-benzoimidazol-2-yloxy]-2-methyl-benzoic acid methyl ester] | > 80
20 | O=C(O)c1ccc(Oc2nc3cc(-c4ccc(-c5ccccc5)cc4)c(Cl)cc3[nH]2)cc1O [Example 32, 4-(5-Biphenyl-4-yl-6-chloro-1H-benzoimidazol-2-yloxy)-2-hydroxy-benzoic acid] | > 80
21 | O=C1NC(=O)C(c2ccc(Oc3nc4cc(-c5ccc(-c6ccccc6)cc5)c(Cl)cc4[nH]3)cc2)N1 (centres unmarked) [Example 29, 5-[4-(5-Biphenyl-4-yl-6-chloro-1H-benzoimidazol-2-yloxy)-phenyl]-imidazolidine-2,4-dione] | > 80
22 | Cc1ccc(Oc2nc3cc(C#Cc4cccnc4)c(Cl)cc3[nH]2)cc1C(=O)O [Example 131, 5-(6-Chloro-5-pyridin-3-ylethynyl-1H-benzoimidazol-2-yloxy)-2-methyl-benzoic acid] | > 80
23 | Cc1ccc(Oc2nc3cc(C#Cc4ccc(C5(O)CC5)cc4)c(Cl)cc3[nH]2)cc1C(=O)O [Example 89, 5-{6-Chloro-5-[4-(1-hydroxy-cyclopropyl)-phenylethynyl]-1H-benzoimidazol-2-yloxy}-2-methyl-benzoic acid] | > 80
24 | Cc1ccc(Oc2nc3cc(-c4cnc(N5CCCC5)cn4)c(F)cc3[nH]2)cc1C(=O)O [Example 250, 5-[6-Fluoro-5-(5-pyrrolidin-1-yl-pyrazin-2-yl)-1H-benzoimidazol-2-yloxy]-2-methyl-benzoic acid] | > 80
25 | Cc1ccc(Oc2nc3cc(-c4ccc5c(c4)CCN5C)c(Cl)cc3[nH]2)cc1C(=O)O [Example 282, 5-[6-Chloro-5-(1-methyl-2,3-dihydro-1H-indol-5-yl)-1H-benzoimidazol-2-yloxy]-2-methyl-benzoic acid] | > 80

same assay, conditions: recombinant human AMPK complex 1 (α1β1γ1); read-out: EC50

Row | SMILES | EC50 [nM]
26 | Cc1ccc(Oc2nc3cc(-c4ccc(-c5ccccc5)cc4)c(F)cc3[nH]2)cc1C(=O)O [Example 365, 5-[(5-biphenyl-4-yl-6-fluoro-1H-benzimidazol-2-yl)oxy]-2-methylbenzoic acid] | 9
